The results in this text go back to patent US20150104870A1, “NEURONAL DIFFERENTIATION PROMOTER” (KEIO UNIVERSITY, priority 2012, published 2015).

Entries after “also recorded” stand apart in the source; their conditions may differ.

Data set [1] relates to human fetal brain-derived neurospheres. The data set is described as follows: Human neurosphere differentiation assay. The format is cell-based. Particulars: human neurospheres treated with inhibitor, vs control. As for the experimental part: (§1) Mouse ESC (EB3) culture, EB formation, neurosphere formation and differentiation of neurosphere were performed as previously described (Nat. Neurosci. 11, 1014-1023 (2008)). Human NSCs were grown as previously described (J. Neurosci. Res. 69, 869-879 (2002); J. Neurosci. Res. 87, 307-317 (2009)) without […] growth factor (EGF), and allowed to differentiate on a substrate-coated coverslips in the absence of mitogen for 14 days, a procedure similar to that used for mouse neurosphere.
(§2) Immunocytechemistry and immunohistochemistry were performed as previously described (Nat. Neurosci. 11, 1014-1023 (2008)) using antibodies against βIII-tubulin, NeuN (neural marker), glial fibrillary acidic protein (GFAP, astrocyte marker), and haemagglutinin (HA).

In data set [2] the test system is p2 neurospheres. Put plainly: Mouse ESC-derived neurosphere differentiation assay. The note with it: for neuronal differentiation (βIII-tubulin-positive neurons) of p2 neurospheres: lentiviral overexpression in NSCs from p0 stage, differentiated at p2, control miR-LacZ. It is filed as cell-based. As for the experimental part:
as §1, §2

Data set [3] concerns p38. The data set is described as follows: Western blotting of p38 expression in neurospheres. The format is cell-based, mouse. Particulars: p2 neurospheres. On the technique in general: A western blot detects proteins with antibodies after separation by electrophoresis.
In data set [4] the test system is miR-17 binding site in 3′UTR of p38 mRNA. Put plainly: DsRed-Express2 reporter assay (Mp38 sensor) in HEK293 cells. The note with it: HEK293 stable transformant, FACS one week after lentivirus, compared to miR-LacZ. It is filed as cell-based, human. The source says: FIG. 17 is a graph showing that miR-17 binds to a binding site in the 3′ untranslated region (UTR) of mouse p38 mRNA. […] The miR-17 binding site in 3′UTR of p38 mRNA (to be referred to as “Mp38 sensor”; 2970-2992 of NM_011951) was cloned into a mammal expression vector of the DsRed-Express2 reporter system. After transformation of HEK293 cells, lentiviruses expressing miR-LacZ or miR-17 were introduced into a stable transformant. One week later, the intracellular expression level of DsRed-Express2 was analyzed by FACS. […] (t-test, n (≧3000 cells)=3, **P<0.01). Bars and error bars represent the mean+s.e.m for each condition.
On the technique in general: In a reporter assay the amount or activity of a reporter protein is the signal.

Data set [5] relates to developing mouse brain. The data set is described as follows: In utero lentiviral microinjection, fate of infected cells in cerebral cortex. The format is in vivo. Particulars: lentivirus injected in utero at E10.5, examined at P30. As for the experimental part:
Experiments were performed using ICR mice. All aspects of animal care and treatment were carried according to the guidelines of the Experimental Animal Committee of Keio University School of Medicine. In utero microinjection of lentivirus particles into the brain of E10.5 ICR mouse was guided by an in vivo ultrasound real-time scanner (Vevo660; VisualSonics).
as §2

The subject of data set [6] is Gfap promoter. Put plainly: Bisulfite sequencing of CpG methylation status. It is filed as cell-based, mouse. The text has this: The methylation frequency of 10 CpG sequences on the Gfap promoter, including the CpG site in the STAT3-binding sequence as indicated by the arrows, was examined. The graphs show the percentages of methylated CpG cytosines in the whole Gfap promoter (left graph) and the STAT3-binding region (right graph) (t test, n (≧10 clones)=3, NS (not significant), P>0.05). Bars and error bars represent the mean+s.e.m for each condition.

Regarding `C[S+]([O-])c1ccc(-c2nc(-c3ccncc3)c(-c3ccc(F)cc3)[nH]2)cc1` (stereo not drawn) [SB203580, reference compound], in data set [1], the “percentage of neurons differentiated from human neurospheres (neuropotency)” value is on record as “restored neuropotency; also recorded: increased the percentage of neurons differentiated from the neurospheres”. Moreover, the “percentage of neurons differentiated from p2 neurospheres (neuropotency)” value in data set [2] (mouse p2 neurospheres, treatment with inhibitor during growth, vs control) was “showed higher neuropotency than controls; also recorded: increased the percentage of neurons differentiated from p2 neurospheres”.
Take “miR-17: miRNA targeting p38, SEQ ID NO: 5, overexpressed by lentivirus (guide CAAAGUGCUUACAGUGCAGGUAG; listed as Mus musculus)”: in data set [3], the p38 protein expression result is reported as “suppressed p38 expression at p2 stage”. The “DsRed-Express2 reporter expression linked to Mp38 sensor / interaction with p38 mRNA” value in data set [4] is “direct interaction; also recorded: caused a decrease in DsRed-Express2”. Further, the “infected cells fated to become neurons in the cerebral cortex” value in data set [5] was 97.6%. In data set [6] (p2 neurosphere stage, overexpression from p0), the “CpG methylation of Gfap promoter” value is “no significant changes in the extent of CpG methylation”. In addition, the “DNA methylation status of the Gfap promoter” value in data set [6] (p3 neurospheres) was “did not change significantly”. In addition, the “differentiation of p2 neurospheres in presence of gliogenic cytokines” value in data set [2] (LIF (10 ng/ml) and BMP2 (100 ng/ml) during differentiation, p2 stage) is recorded as “differentiated exclusively into neurons; also recorded: did not undergo gliogenesis”. Further, the “neuropotency of p3 neurospheres” value in data set [2] (lentiviral infection at onset of p3 stage, within 1 week) is listed as “marked recovery of neuropotency; also recorded: restored neuropotency of mouse p3 neurospheres”. Also, the “neuronal differentiation (βIII-tubulin-positive neurons) of p2 neurospheres” value in data set [2] is given as “replicated the phenotype induced by the intact miR-17-92 cluster”.
“miR-106a: miRNA targeting p38, SEQ ID NO: 6, paralog of miR-17 (CAAAGUGCUAACAGUGCAGGUAG; listed as RNA, chemistry not fully specified; listed as Mus musculus)”: the “neuronal differentiation (βIII-tubulin-positive neurons) of p2 neurospheres” value in data set [2] is reported as “led to a neuronal phenotype”.
Still for that read-out and setting: the result for “miR-106b: miRNA targeting p38, SEQ ID NO: 7, paralog of miR-17 (UAAAGUGCUGACAGUGCAGAU; listed as RNA, chemistry not fully specified; listed as Mus musculus)” reads “led to a neuronal phenotype; also recorded: stronger than that of miR-106a”.
